Test results: patent publication US20080200337A1, “Mixed herbicide compositions for paddy field” (Bayer CropScience, priority 2007, published 2008)

Columns and labels:
Assay type in all cases: in vivo
[1] = system: Cyperus serotinus Rottboel; test: Weed control, flooded paddy field, treatment at 1 leaf-stage (Test Example 1); conditions: 20 g ai/ha, after 4 weeks
Protocol: (§1) Carrier: 5 parts by weight of acetone
(§2) Surfactant: one part by weight of benzyloxy polyglycol ether.
(§3) Above described carrier and surfactant are mixed with one part by weight of the active compound ((a) ingredient and (b) ingredient) and the resulting preparation is then diluted with water to obtain given amount of the test drug (the formulation).
(§4) In a greenhouse, seeds or tubers of Echinochloa, Scirpus juncoides Roxburgh, Monochoria vaginalis Presl, annual broad-leaved weeds (Lindernia procumbens Philcox, Lindernia dubia L. Penn., Rotala indica Koehne, Elatine triandra Schk, Ammannia multiflora Roxb.), Cyperus serotinus Rottboel and Sagittaria pygmaea Miq. were inoculated in a 500 cm^2 pot filled with paddy field soil. After 2 leaf-stage of rice were transplanted, water was poured to a depth of about 3 cm. At 1.0 leaf-stage of Echinochloa oryzicola Vasing, a prescribed, diluted solution of the formulation of each active compound and each herbicidal compound in the table was separately or simultaneously applied to the surface of water. After the treatment, the water depth of 3 cm was maintained, and herbicidal effect was examined after 4 weeks. In the assessment of the herbicidal effect and the phytotoxicity, 100% refers to complete death and 0% refers to no effect or no phytotoxicity.

[2] = system: Echinochloa; test: as above; conditions: 20 g ai/ha, after 4 weeks
Protocol: as §1, §2, §3, §4

[3] = system: Monochoria vaginalis Presl; test: as above; conditions: 20 g ai/ha, after 4 weeks
Protocol: as §1, §2, §3, §4

[4] = system: Sagittaria pygmaea Miq.; test: as above; conditions: 20 g ai/ha, after 4 weeks
Protocol: as §1, §2, §3, §4

[5] = system: Scirpus juncoides Roxburgh; test: as above; conditions: 20 g ai/ha, after 4 weeks
Protocol: as §1, §2, §3, §4

[6] = system: annual broad-leaved weeds; test: as above; conditions: 20 g ai/ha, after 4 weeks
Protocol: as §1, §2, §3, §4

[7] = system: transplanted rice; test: Phytotoxicity, flooded paddy field, treatment at 1 leaf-stage (Test Example 1); conditions: rice, in vivo, 4 weeks
Protocol: as §1, §2, §3, §4

[8] = system: Cyperus serotinus Rottboel; test: Weed control, flooded paddy field, treatment at 3 leaf-stage (Test Example 2); conditions: 20 g ai/ha, after 4 weeks
Protocol: as §1, §2, §3
as §4, with “Echinochloa, Cyperus difformis L.,” for “Echinochloa,”, “3.0” for “1.0”, “Echinochloa,” for “Echinochloa oryzicola Vasing,”

[9] = system: Echinochloa; test: as above; conditions: 20 g ai/ha, after 4 weeks
Protocol: as §1, §2, §3
as §4, with “Echinochloa, Cyperus difformis L.,” for “Echinochloa,”, “3.0” for “1.0”, “Echinochloa,” for “Echinochloa oryzicola Vasing,”

[10] = system: Monochoria vaginalis Presl; test: as above; conditions: 20 g ai/ha, after 4 weeks
Protocol: as §1, §2, §3
as §4, with “Echinochloa, Cyperus difformis L.,” for “Echinochloa,”, “3.0” for “1.0”, “Echinochloa,” for “Echinochloa oryzicola Vasing,”

[11] = system: Sagittaria pygmaea Miq.; test: as above; conditions: 20 g ai/ha, after 4 weeks
Protocol: as §1, §2, §3
as §4, with “Echinochloa, Cyperus difformis L.,” for “Echinochloa,”, “3.0” for “1.0”, “Echinochloa,” for “Echinochloa oryzicola Vasing,”

[12] = system: Scirpus juncoides Roxburgh; test: as above; conditions: 20 g ai/ha, after 4 weeks
Protocol: as §1, §2, §3
as §4, with “Echinochloa, Cyperus difformis L.,” for “Echinochloa,”, “3.0” for “1.0”, “Echinochloa,” for “Echinochloa oryzicola Vasing,”

[13] = system: annual broad-leaved weeds; test: as above; conditions: 20 g ai/ha, after 4 weeks
Protocol: as §1, §2, §3
as §4, with “Echinochloa, Cyperus difformis L.,” for “Echinochloa,”, “3.0” for “1.0”, “Echinochloa,” for “Echinochloa oryzicola Vasing,”

[14] = system: transplanted rice; test: Phytotoxicity, flooded paddy field, treatment at 3 leaf-stage (Test Example 2); conditions: rice, in vivo, 4 weeks
Protocol: as §1, §2, §3
as §4, with “Echinochloa, Cyperus difformis L.,” for “Echinochloa,”, “3.0” for “1.0”, “Echinochloa,” for “Echinochloa oryzicola Vasing,”

[15] = system: Cyperus difformis L.; test: Weed control by spray treatment at 1.5 to 3.0 leaf-stage (Test Example 3); conditions: 20 g ai/ha; spray at 1.5 to 3.0 leaf-stage; 4 weeks later
Protocol: as §1, §2, §3
(§5) In a greenhouse, seeds of rice (var.: Nipponbare and RD23) and weeds (Echinochloa oryzicola Vasing, Echinochloa cruss-galli, Leptochloa chinensis, Cyperus difformis L., Cyperus iria L., annual broad-leaved weeds (Monochoria vaginalis Presl, Lindernia procumbens Philcox, Lindernia dubia L. Penn., Rotala indica Koehne, Elatine triandra Schk, Ammannia multiflora Roxb. and the like)) were sown in a 500 cm^2 pot filled with paddy field soil and covered with soil. Water was added to the pot (a depth of 0 cm) to be a wet condition, and each test plant was grown in the greenhouse to 1.5 to 3.0 leaf-stage, after then a prescribed, diluted solution of the formulation of each active compound and each herbicidal compound in the table were separately or simultaneously sprayed over the pots with plants. At 3 days after the treatment, the water depth of 3 cm was maintained, and 4 weeks later, herbicidal effect was then examined. In the assessment of the herbicidal effect and the phytotoxicity, 100% refers to complete death and 0% refers to no effect or no phytotoxicity.

[16] = system: Cyperus iria L.; test: as above; conditions: 20 g ai/ha; spray at 1.5 to 3.0 leaf-stage; 4 weeks later
Protocol: as §1, §2, §3, §5

[17] = system: Echinochloa cruss-galli; test: as above; conditions: 20 g ai/ha; spray at 1.5 to 3.0 leaf-stage; 4 weeks later
Protocol: as §1, §2, §3, §5

[18] = system: Echinochloa oryzicola Vasing; test: as above; conditions: 20 g ai/ha; spray at 1.5 to 3.0 leaf-stage; 4 weeks later
Protocol: as §1, §2, §3, §5

[19] = system: Leptochloa chinensis; test: as above; conditions: 20 g ai/ha; spray at 1.5 to 3.0 leaf-stage; 4 weeks later
Protocol: as §1, §2, §3, §5

[20] = system: Monochoria vaginalis Presl; test: as above; conditions: 20 g ai/ha; spray at 1.5 to 3.0 leaf-stage; 4 weeks later
Protocol: as §1, §2, §3, §5

[21] = system: annual broad-leaved weeds; test: as above; conditions: 20 g ai/ha; spray at 1.5 to 3.0 leaf-stage; 4 weeks later
Protocol: as §1, §2, §3, §5

[22] = system: submerged direct sown paddy (Nipponbare); test: Phytotoxicity, spray treatment at 1.5 to 3.0 leaf-stage (Test Example 3); conditions: rice, in vivo, 4 weeks
Protocol: as §1, §2, §3, §5

[23] = system: submerged direct sown paddy (RD-23); test: as above; conditions: RD-23, rice, in vivo, 4 weeks
Protocol: as §1, §2, §3, §5

## CCOc1ccccc1OS(=O)(=O)NC(=O)Nc1nc(OC)cc(OC)n1 [(b-5), ethoxysulfuron]
[1]
  Herbicidal effect (%) CYPSEE: 60%
[2]
  Herbicidal effect (%) ECHSS: 30%
[3]
  Herbicidal effect (%) MOOVP: 95%
[4]
  Herbicidal effect (%) SAGPY: 90%
[5]
  Herbicidal effect (%) SCPSS: 95%
[6]
  Herbicidal effect (%) BBBBB: 95%
[7]
  Phytotoxicity (%) ORYSP: 10%
[8]
  Herbicidal effect (%) CYPSEE: 20%
[9]
  Herbicidal effect (%) ECHSS: 50%
[10]
  Herbicidal effect (%) MOOVP: 80%
[11]
  Herbicidal effect (%) SAGPY: 60%
[12]
  Herbicidal effect (%) SCPSS: 90%
[13]
  Herbicidal effect (%) BBBBB: 60%
[14]
  Phytotoxicity (%) ORYSP: 0%
[15]
  Herbicidal effect (%) CYPDI: 100%
[16]
  Herbicidal effect (%) CYPIR: 100%
[17]
  Herbicidal effect (%) ECHCG: 10%
[18]
  Herbicidal effect (%) ECHOR: 15%
[19]
  Herbicidal effect (%) LEFCH: 15%
[20]
  Herbicidal effect (%) MOOVP: 95%
[21]
  Herbicidal effect (%) BBBBB: 90%
[22]
  Phytotoxicity (%) ORYSW*^1: 10%
[23]
  Phytotoxicity (%) ORYSW*^2: 10%
